Test results published in US20060003016A1, “Therapeutic method for endolymphatic hydrops associated diseases” (priority 2004, published 2006).
Like-named read-outs stand apart in the source and are kept apart here.

Test system: patients with Meniere's disease and endolymphatic hydrops associated diseases
Conditions: for hearing level: case 4, right ear
Excerpt: In the present case who could be followed up for more than 24 months after treatment with water intake, the therapeutic effect was judged by using the criteria of AAO-HNS (1995)^14), 15). Proviso that in an examination on changes of the hearing, although the criteria in the four-frequency pure-tone averages (PTA) of AAO-HNS (1995)^14) adopted mean values of the hearing levels consisting of 500 Hz, 1000 Hz, 2000 Hz and 3000 Hz, in our case, the value of 4000 Hz was used in stead of that of 3000 Hz.
In each figure, a horizontal axis indicates frequency (Hz) and a vertical axis indicates hearing level. […] A graph in the upper position indicates better hearing level.

O [water intake, water]
hearing level after treatment (case 1, right ear, 125 Hz, Aug. 29, 2003, water intake 2 lit./day, before 45 dB): 0 dB | hearing level after treatment (case 1, right ear, 250 Hz, Aug. 29, 2003, water intake 2 lit./day, before 45 dB): 5 dB | hearing level after treatment (case 1, right ear, 500 Hz, Aug. 29, 2003, water intake 2 lit./day, before 45 dB): 15 dB | hearing level after treatment (case 1, right ear, 1000 Hz, Aug. 29, 2003, water intake 2 lit./day, before 50 dB): 15 dB | hearing level after treatment (case 1, right ear, 2000 Hz, Aug. 29, 2003, water intake 2 lit./day, before 35 dB): 15 dB | hearing level after treatment (case 1, right ear, 4000 Hz, Aug. 29, 2003, water intake 2 lit./day, before 10 dB): 10 dB | hearing level after treatment (case 1, right ear, 8000 Hz, Aug. 29, 2003, water intake 2 lit./day, before 15 dB): 25 dB | hearing level after treatment, average (500-4000 Hz) (case 1, right ear, Aug. 29, 2003, water intake 2 lit./day, before 35 dB): 13.75 dB | hearing level after treatment (case 3, left ear, 125 Hz, Jun. 7, 2002, poorest level 18-24 months after treatment, water intake, before 40 dB): 25 dB | hearing level after treatment (case 3, left ear, 250 Hz, Jun. 7, 2002, poorest level 18-24 months after treatment, water intake, before 25 dB): 20 dB | hearing level after treatment (case 3, left ear, 500 Hz, Jun. 7, 2002, poorest level 18-24 months after treatment, water intake, before 25 dB): 15 dB | hearing level after treatment (case 3, left ear, 1000 Hz, Jun. 7, 2002, poorest level 18-24 months after treatment, water intake, before 15 dB): 5 dB | hearing level after treatment (case 3, left ear, 2000 Hz, Jun. 7, 2002, poorest level 18-24 months after treatment, water intake, before 10 dB): 5 dB | hearing level after treatment (case 3, left ear, 4000 Hz, Jun. 7, 2002, poorest level 18-24 months after treatment, water intake, before 45 dB): 5 dB | hearing level after treatment (case 3, left ear, 8000 Hz, Jun. 7, 2002, poorest level 18-24 months after treatment, water intake, before 80 dB): 15 dB | hearing level after treatment, average (500-4000 Hz) (case 3, left ear, Jun. 7, 2002, poorest level 18-24 months after treatment, water intake, before 23.75 dB): 7.5 dB | hearing improved as compared with before the treatment (four-frequency PTA) (case 3, left ear, water intake): 16.25 dB | category of change of hearing, AAO-HNS (1995) criteria (case 3, water intake): improved | hearing level (125 Hz, Aug. 2003, water intake 1.5 lit./day): 25 dB | hearing level (125 Hz, Dec. 2003, water intake 1.5 lit./day): 25 dB | hearing level (125 Hz, Jan. 2004, water intake 1.5 lit./day): 25 dB | hearing level (125 Hz, Jul. 2003, water intake 1.5 lit./day): 50 dB | hearing level (125 Hz, Jun. 2003, water intake 1.5 lit./day from Jun. 20, 2003): 30 dB | hearing level (125 Hz, Nov. 2003, water intake 1.5 lit./day): 25 dB | hearing level (125 Hz, Oct. 2003, water intake 1.5 lit./day): 30 dB | hearing level (125 Hz, Sep. 2003, water intake 1.5 lit./day): 30 dB | hearing level (250 Hz, Aug. 2003, water intake 1.5 lit./day): 25 dB | hearing level (250 Hz, Dec. 2003, water intake 1.5 lit./day): 25 dB | hearing level (250 Hz, Jan. 2004, water intake 1.5 lit./day): 25 dB | hearing level (250 Hz, Jul. 2003, water intake 1.5 lit./day): 45 dB | hearing level (250 Hz, Jun. 2003, water intake 1.5 lit./day from Jun. 20, 2003): 35 dB | hearing level (250 Hz, Nov. 2003, water intake 1.5 lit./day): 20 dB | hearing level (250 Hz, Oct. 2003, water intake 1.5 lit./day): 30 dB | hearing level (250 Hz, Sep. 2003, water intake 1.5 lit./day): 40 dB | hearing level (500 Hz, Aug. 2003, water intake 1.5 lit./day): 25 dB | hearing level (500 Hz, Dec. 2003, water intake 1.5 lit./day): 15 dB | hearing level (500 Hz, Jan. 2004, water intake 1.5 lit./day): 20 dB | hearing level (500 Hz, Jul. 2003, water intake 1.5 lit./day): 45 dB | hearing level (500 Hz, Jun. 2003, water intake 1.5 lit./day from Jun. 20, 2003): 40 dB | hearing level (500 Hz, Nov. 2003, water intake 1.5 lit./day): 20 dB | hearing level (500 Hz, Oct. 2003, water intake 1.5 lit./day): 25 dB | hearing level (500 Hz, Sep. 2003, water intake 1.5 lit./day): 40 dB | hearing level (1000 Hz, Aug. 2003, water intake 1.5 lit./day): 30 dB | hearing level (1000 Hz, Dec. 2003, water intake 1.5 lit./day): 25 dB | hearing level (1000 Hz, Jan. 2004, water intake 1.5 lit./day): 25 dB | hearing level (1000 Hz, Jul. 2003, water intake 1.5 lit./day): 50 dB | hearing level (1000 Hz, Jun. 2003, water intake 1.5 lit./day from Jun. 20, 2003): 50 dB | hearing level (1000 Hz, Nov. 2003, water intake 1.5 lit./day): 30 dB | hearing level (1000 Hz, Oct. 2003, water intake 1.5 lit./day): 25 dB | hearing level (1000 Hz, Sep. 2003, water intake 1.5 lit./day): 45 dB | hearing level (2000 Hz, Aug. 2003, water intake 1.5 lit./day): 20 dB | hearing level (2000 Hz, Dec. 2003, water intake 1.5 lit./day): 20 dB | hearing level (2000 Hz, Jan. 2004, water intake 1.5 lit./day): 20 dB | hearing level (2000 Hz, Jul. 2003, water intake 1.5 lit./day): 45 dB | hearing level (2000 Hz, Jun. 2003, water intake 1.5 lit./day from Jun. 20, 2003): 25 dB | hearing level (2000 Hz, Nov. 2003, water intake 1.5 lit./day): 20 dB | hearing level (2000 Hz, Oct. 2003, water intake 1.5 lit./day): 20 dB | hearing level (2000 Hz, Sep. 2003, water intake 1.5 lit./day): 40 dB | hearing level (4000 Hz, Aug. 2003, water intake 1.5 lit./day): 30 dB | hearing level (4000 Hz, Dec. 2003, water intake 1.5 lit./day): 30 dB
